# In publication PMC4128571 (Drug testing and analysis, 2014):
# What was measured:
# Format in all cases: biochemical
# [1] = target: norepinephrine transporters (NET) (Rattus norvegicus, UniProt Q63380); conditions: rat brain synaptosomes
# [2] = target: dopamine transporters (DAT) (Rattus norvegicus, UniProt P23977); conditions: for DAT/SERT ratio: (EC50 at DAT)^-1/(EC50 at SERT)^-1, higher value indicates greater DAT selectivity; for Efficacy to evoke release at DAT (of maximal release): rat brain synaptosomes
# [3] = target: 5-HT transporters (SERT) (Rattus norvegicus, UniProt P31652); conditions: for Efficacy to evoke release at SERT (of maximal release): rat brain synaptosomes
# Sequence of 5-HT transporters (SERT) (P31652 whole entry): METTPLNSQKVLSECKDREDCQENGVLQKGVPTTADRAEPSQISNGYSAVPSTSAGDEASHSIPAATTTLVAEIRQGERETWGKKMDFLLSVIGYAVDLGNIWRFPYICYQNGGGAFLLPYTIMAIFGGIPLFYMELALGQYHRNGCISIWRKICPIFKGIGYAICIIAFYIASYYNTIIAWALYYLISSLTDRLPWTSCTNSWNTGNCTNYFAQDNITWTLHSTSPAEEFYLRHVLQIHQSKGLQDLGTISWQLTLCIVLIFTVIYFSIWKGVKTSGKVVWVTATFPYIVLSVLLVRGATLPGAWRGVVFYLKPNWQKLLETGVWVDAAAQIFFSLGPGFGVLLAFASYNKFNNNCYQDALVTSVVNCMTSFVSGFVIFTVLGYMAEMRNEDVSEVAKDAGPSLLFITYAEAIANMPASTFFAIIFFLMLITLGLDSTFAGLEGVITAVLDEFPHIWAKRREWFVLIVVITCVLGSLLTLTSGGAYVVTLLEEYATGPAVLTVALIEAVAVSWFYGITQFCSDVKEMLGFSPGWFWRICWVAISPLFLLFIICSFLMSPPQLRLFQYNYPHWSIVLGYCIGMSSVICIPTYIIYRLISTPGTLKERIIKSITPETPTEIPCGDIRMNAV
# Sequence of norepinephrine transporters (NET) (Q63380 1-617): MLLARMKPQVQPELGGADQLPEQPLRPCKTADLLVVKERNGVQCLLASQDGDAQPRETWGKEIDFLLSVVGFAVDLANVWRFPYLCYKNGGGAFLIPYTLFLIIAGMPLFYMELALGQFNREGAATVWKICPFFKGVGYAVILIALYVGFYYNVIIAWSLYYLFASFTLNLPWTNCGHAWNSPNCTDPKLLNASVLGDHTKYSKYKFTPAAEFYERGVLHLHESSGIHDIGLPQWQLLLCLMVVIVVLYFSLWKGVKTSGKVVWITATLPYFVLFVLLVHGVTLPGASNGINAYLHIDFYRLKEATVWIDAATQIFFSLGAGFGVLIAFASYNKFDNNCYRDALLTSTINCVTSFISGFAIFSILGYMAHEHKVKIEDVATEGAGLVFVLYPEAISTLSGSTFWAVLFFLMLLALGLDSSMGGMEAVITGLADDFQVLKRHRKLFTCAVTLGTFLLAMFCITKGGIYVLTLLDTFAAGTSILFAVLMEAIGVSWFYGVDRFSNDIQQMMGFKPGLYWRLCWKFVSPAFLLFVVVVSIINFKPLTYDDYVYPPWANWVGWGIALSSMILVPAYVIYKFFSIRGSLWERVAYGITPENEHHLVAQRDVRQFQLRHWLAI
# Sequence of dopamine transporters (DAT) (P23977 whole entry): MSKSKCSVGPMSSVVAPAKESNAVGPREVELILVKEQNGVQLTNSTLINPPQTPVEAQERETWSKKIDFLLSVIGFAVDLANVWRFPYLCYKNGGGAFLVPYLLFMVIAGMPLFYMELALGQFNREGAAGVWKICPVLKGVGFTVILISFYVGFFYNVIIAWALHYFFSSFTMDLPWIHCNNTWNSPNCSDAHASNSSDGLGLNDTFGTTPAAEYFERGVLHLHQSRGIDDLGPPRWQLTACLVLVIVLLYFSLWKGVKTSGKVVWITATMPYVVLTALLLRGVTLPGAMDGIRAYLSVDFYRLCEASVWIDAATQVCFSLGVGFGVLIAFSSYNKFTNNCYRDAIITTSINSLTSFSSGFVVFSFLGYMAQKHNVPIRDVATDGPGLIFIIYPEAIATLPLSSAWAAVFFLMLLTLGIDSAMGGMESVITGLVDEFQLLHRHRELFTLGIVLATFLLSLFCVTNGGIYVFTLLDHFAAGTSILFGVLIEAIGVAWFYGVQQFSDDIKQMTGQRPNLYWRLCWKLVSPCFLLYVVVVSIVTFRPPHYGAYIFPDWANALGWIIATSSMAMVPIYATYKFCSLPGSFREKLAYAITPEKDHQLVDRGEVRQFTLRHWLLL
SMILES,Efficacy to evoke release at NET (of maximal release) [1],DAT/SERT ratio [2],Efficacy to evoke release at DAT (of maximal release) [2],Efficacy to evoke release at SERT (of maximal release) [3],EC50 [2],EC50 [3]
"Cc1ccc([C@H]2OC(N)=N[C@H]2C)cc1 (racemic) [(±)-cis-4,4'-DMAR, (±)-cis-4-Methyl-5-(4-methylphenyl)-4,5-dihydrooxazol-2-amine]",fully efficacious,2,fully efficacious,fully efficacious,–,–
"C[C@@H]1N=C(N)O[C@@H]1c1ccccc1 (racemic) [(±)-cis-4-MAR, (±)-cis-4-methylaminorex]",fully efficacious,31,fully efficacious,fully efficacious,–,–
"NC1=NCC(c2ccccc2)O1 (stereo not drawn) [Aminorex, 5-phenyl-4,5-dihydrooxazol-2-amine]",fully efficacious,45,fully efficacious,fully efficacious,9.1 ± 0.9 nM,414 ± 78 nM
C[C@H](N)Cc1ccccc1 [d-Amphetamine],fully efficacious,–,–,–,–,–
